Measured values: PubChem BioAssay (NCI)
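Briefly, cells in 96-well plates were exposed to five compound concentrations for 48 h, and endpoints were estimated by linear interpolation. TGI: concentration producing complete growth inhibition.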

Assays:
Assay in all cases: inhibition of tumour cell growth, NCI panel, 48 h
786-0 renal = system: 786-0 renal
A549 NSCLC = system: A549 NSCLC
ACHN renal = system: ACHN renal
BT-549 breast = system: BT-549 breast
CCRF-CEM leukemia = system: CCRF-CEM leukemia
COLO 205 colon = system: COLO 205 colon
DU-145 prostate = system: DU-145 prostate
EKVX NSCLC = system: EKVX NSCLC
HCC-2998 colon = system: HCC-2998 colon
HCT-116 colon = system: HCT-116 colon
HCT-15 colon = system: HCT-15 colon
HL-60(TB) leukemia = system: HL-60(TB) leukemia
HOP-62 NSCLC = system: HOP-62 NSCLC
HOP-92 NSCLC = system: HOP-92 NSCLC
HS 578T breast = system: HS 578T breast
HT29 colon = system: HT29 colon
IGROV1 ovarian = system: IGROV1 ovarian
K-562 leukemia = system: K-562 leukemia
KM12 colon = system: KM12 colon
M14 melanoma = system: M14 melanoma
MALME-3M melanoma = system: MALME-3M melanoma
MCF7 breast = system: MCF7 breast
MDA-MB-231 breast = system: MDA-MB-231 breast
MDA-MB-435 = system: MDA-MB-435
MDA-N = system: MDA-N
MOLT-4 leukemia = system: MOLT-4 leukemia
NCI-H226 lung = system: NCI-H226 lung
NCI-H23 lung = system: NCI-H23 lung
NCI-H460 lung = system: NCI-H460 lung
NCI-H522 lung = system: NCI-H522 lung
NCI/ADR-RES ovarian = system: NCI/ADR-RES ovarian
OVCAR-3 ovarian = system: OVCAR-3 ovarian
OVCAR-4 ovarian = system: OVCAR-4 ovarian
OVCAR-5 ovarian = system: OVCAR-5 ovarian
OVCAR-8 ovarian = system: OVCAR-8 ovarian
PC-3 prostate = system: PC-3 prostate
RPMI-8226 leukemia = system: RPMI-8226 leukemia
RXF 393 renal = system: RXF 393 renal
SF-268 CNS = system: SF-268 CNS
SF-295 CNS = system: SF-295 CNS
SF-539 CNS = system: SF-539 CNS
SK-MEL-28 melanoma = system: SK-MEL-28 melanoma
SK-MEL-5 melanoma = system: SK-MEL-5 melanoma
SK-OV-3 ovarian = system: SK-OV-3 ovarian
SN12C renal = system: SN12C renal
SNB-19 CNS = system: SNB-19 CNS
SNB-75 CNS = system: SNB-75 CNS
SR leukemia = system: SR leukemia
SW-620 colon = system: SW-620 colon
T-47D breast = system: T-47D breast
TK-10 renal = system: TK-10 renal
U251 CNS = system: U251 CNS
UACC-257 melanoma = system: UACC-257 melanoma
UACC-62 melanoma = system: UACC-62 melanoma
A498 renal = system: A498 renal
CAKI-1 renal = system: CAKI-1 renal
LOX IMVI melanoma = system: LOX IMVI melanoma
SK-MEL-2 melanoma = system: SK-MEL-2 melanoma
UO-31 renal = system: UO-31 renal

## CCn1c(-c2ccc(OC)cc2)nc2c1C(=O)c1ccccc1C2=O
786-0 renal
  TGI: > 100 µM
A549 NSCLC
  TGI: > 100 µM
ACHN renal
  TGI: > 100 µM
BT-549 breast
  TGI: > 100 µM
CCRF-CEM leukemia
  TGI: > 100 µM
COLO 205 colon
  TGI: > 100 µM
DU-145 prostate
  TGI: > 100 µM
EKVX NSCLC
  TGI: > 100 µM
HCC-2998 colon
  TGI: > 100 µM
HCT-116 colon
  TGI: > 100 µM
HCT-15 colon
  TGI: > 100 µM
HL-60(TB) leukemia
  TGI: > 100 µM
HOP-62 NSCLC
  TGI: > 100 µM
HOP-92 NSCLC
  TGI: > 100 µM
HS 578T breast
  TGI: > 100 µM
HT29 colon
  TGI: > 100 µM
IGROV1 ovarian
  TGI: > 100 µM
K-562 leukemia
  TGI: > 100 µM
KM12 colon
  TGI: > 100 µM
M14 melanoma
  TGI: > 100 µM
MALME-3M melanoma
  TGI: > 100 µM
MCF7 breast
  TGI: > 100 µM
MDA-MB-231 breast
  TGI: > 100 µM
MDA-MB-435
  TGI: > 100 µM
MDA-N
  TGI: > 100 µM
MOLT-4 leukemia
  TGI: > 100 µM
NCI-H226 lung
  TGI: > 100 µM
NCI-H23 lung
  TGI: > 100 µM
NCI-H460 lung
  TGI: > 100 µM
NCI-H522 lung
  TGI: > 100 µM
NCI/ADR-RES ovarian
  TGI: > 100 µM
OVCAR-3 ovarian
  TGI: > 100 µM
OVCAR-4 ovarian
  TGI: > 100 µM
OVCAR-5 ovarian
  TGI: > 100 µM
OVCAR-8 ovarian
  TGI: > 100 µM
PC-3 prostate
  TGI: > 100 µM
RPMI-8226 leukemia
  TGI: > 100 µM
RXF 393 renal
  TGI: > 100 µM
SF-268 CNS
  TGI: > 100 µM
SF-295 CNS
  TGI: > 100 µM
SF-539 CNS
  TGI: > 100 µM
SK-MEL-28 melanoma
  TGI: > 100 µM
SK-MEL-5 melanoma
  TGI: > 100 µM
SK-OV-3 ovarian
  TGI: > 100 µM
SN12C renal
  TGI: > 100 µM
SNB-19 CNS
  TGI: > 100 µM
SNB-75 CNS
  TGI: > 100 µM
SR leukemia
  TGI: > 100 µM
SW-620 colon
  TGI: > 100 µM
T-47D breast
  TGI: > 100 µM
TK-10 renal
  TGI: > 100 µM
U251 CNS
  TGI: > 100 µM
UACC-257 melanoma
  TGI: > 100 µM
UACC-62 melanoma
  TGI: > 100 µM

## CSc1c2c(C)n[nH]c2nn1-c1ccccc1
786-0 renal
  TGI: > 100 µM
A498 renal
  TGI: > 100 µM
A549 NSCLC
  TGI: > 100 µM
BT-549 breast
  TGI: > 100 µM
CAKI-1 renal
  TGI: 87.4 µM
CCRF-CEM leukemia
  TGI: > 100 µM
COLO 205 colon
  TGI: > 100 µM
DU-145 prostate
  TGI: > 100 µM
EKVX NSCLC
  TGI: > 100 µM
HCC-2998 colon
  TGI: > 100 µM
HCT-116 colon
  TGI: > 100 µM
HCT-15 colon
  TGI: > 100 µM
HL-60(TB) leukemia
  TGI: 93.6 µM
HS 578T breast
  TGI: > 100 µM
HT29 colon
  TGI: > 100 µM
K-562 leukemia
  TGI: > 100 µM
KM12 colon
  TGI: > 100 µM
LOX IMVI melanoma
  TGI: > 100 µM
M14 melanoma
  TGI: > 100 µM
MALME-3M melanoma
  TGI: > 100 µM
MCF7 breast
  TGI: > 100 µM
MDA-MB-231 breast
  TGI: > 100 µM
MDA-MB-435
  TGI: > 100 µM
MDA-N
  TGI: > 100 µM
MOLT-4 leukemia
  TGI: > 100 µM
NCI-H226 lung
  TGI: > 100 µM
NCI-H23 lung
  TGI: > 100 µM
NCI-H460 lung
  TGI: > 100 µM
NCI-H522 lung
  TGI: > 100 µM
NCI/ADR-RES ovarian
  TGI: > 100 µM
OVCAR-3 ovarian
  TGI: > 100 µM
OVCAR-4 ovarian
  TGI: > 100 µM
OVCAR-5 ovarian
  TGI: > 100 µM
OVCAR-8 ovarian
  TGI: > 100 µM
PC-3 prostate
  TGI: > 100 µM
RPMI-8226 leukemia
  TGI: > 100 µM
RXF 393 renal
  TGI: > 100 µM
SF-268 CNS
  TGI: > 100 µM
SF-539 CNS
  TGI: > 100 µM
SK-MEL-2 melanoma
  TGI: > 100 µM
SK-MEL-28 melanoma
  TGI: > 100 µM
SK-MEL-5 melanoma
  TGI: > 100 µM
SK-OV-3 ovarian
  TGI: > 100 µM
SN12C renal
  TGI: > 100 µM
SNB-19 CNS
  TGI: > 100 µM
SNB-75 CNS
  TGI: > 100 µM
SR leukemia
  TGI: > 100 µM
SW-620 colon
  TGI: > 100 µM
T-47D breast
  TGI: > 100 µM
TK-10 renal
  TGI: > 100 µM
U251 CNS
  TGI: > 100 µM
UACC-257 melanoma
  TGI: > 100 µM
UACC-62 melanoma
  TGI: > 100 µM
UO-31 renal
  TGI: > 100 µM
